Four compounds from paper PMC11767423, “Design, Synthesis, and Antioxidant and Anti-Tyrosinase Activities of (Z)-5-Benzylidene-2-(naphthalen-1-ylamino)thiazol-4(5H)-one Analogs: In Vitro and In Vivo Insights” (Molecules, 2025) can be followed below.

Data set [1] can be described thus: Assay for ABTS+ radical scavenging. The conditions noted are these: 100 μM. On the procedure: The ABTS^+-scavenging efficacy of compounds 1–15 was determined by oxidizing ABTS with K2S2O8 to prepare ABTS^+. The prepared ABTS^+ solution was mixed with the test samples (1–15 and Trolox, a positive control) and the radical-scavenging efficacy of the test samples was explored by measuring the decrease in optical density at 732 nm. All test samples were tested at 100 μM.
To acquire ABTS^+ radicals, ABTS (14 mM in 20 mL H2O) was mixed with K2S2O8 (4.9 mM in 20 mL H2O), an oxidant agent, and stored at 22 °C in a place without light for 15 h. The absorbance of the prepared ABTS^+ radical solution was adjusted to 0.70 ± 0.01 at 732 nm by adding methanol. Test samples (Trolox [positive control] and 1–15) were dissolved in a co-solvent (DMSO:EtOH = 1:10 [v/v]). The diluted ABTS^+ radical solution (90 μL) was added to the test sample solution (10 μL) in each well of a 96-well plate and held at 22 °C in the dark for 2 min. The optical density of each well was recorded at 732 nm every 1 min for 10 min using an ELISA reader. The final concentration of test samples was 100 μM. %Radical-scavenging activity was determined using the formula 100 × [(Abscon − Abssam)/Abscon], where Abscon and Abssam represent the optical densities of the control and the samples, respectively.

Data set [2] is described as follows: Assay for ROS scavenging (SIN-1/DCFH). The conditions noted are these: 40 μM sample; 10 μM SIN-1. As to the method: To assess the ability of compounds 1–15 to scavenge ROS, 2′,7′-dichlorodihydrofluorescein (DCFH) solution, which was obtained from hydrolysis of DCFH diacetate by esterase, was mixed with 3-morpholinosydnonimine (SIN-1), a ROS generator, and test samples (1–15 and Trolox, a positive material). ROS produces 2′,7′-dichlorofluorescein (DCF), a fluorescent material, by oxidizing DCFH. The ROS-scavenging activity of the samples was determined by measuring the fluorescence of DCF. The results were obtained at 10 μM SIN-1 and 40 μM sample.
To obtain 2′,7′-dichlorodihydrofluorescein (DCFH) solution, esterase (3 units/2 mL) was mixed with 2.5 mM DCFH diacetate and 50 mM phosphate buffer (pH 7.4). After incubating the mixture at 22 °C for 25 min, it was kept in the dark. 3-Morpholinosydnonimine (SIN-1) and compounds 1–15 were dissolved in phosphate buffer and DMSO, respectively. SIN-1 (10 µL) and compound (10 µL) were added to each well of a 96-well black plate containing phosphate buffer (180 µL), and the concentrations of SIN-1 and compound were 10 and 40 μM, respectively. Trolox (40 μM) was used as a positive material. […] To measure the fluorescence of 2′,7′-dichlorofluorescein at 535 nm, a microplate reader (Berthold Advances GmbH &Co., Bad Wildbad, Germany) was utilized with an excitation wavelength of 485 nm. […]

Data set [3] in a line: Assay for DPPH radical scavenging. The conditions noted are these: 500 μM; 30 min in the dark. As to the method:
To evaluate the DPPH radical-scavenging efficacy of 1–15, a DPPH methanol solution was mixed with compounds 1–15, and the mixture was left in the dark. After 30 min, the radical-scavenging efficacy of each compound was determined by measuring the optical density at 517 nm. Vitamin C (L-ascorbic acid) was used for comparing radical-scavenging activity, and all test samples were treated at 500 μM.
DPPH was dissolved in methanol to prepare a 0.2 mM solution, and test samples (vitamin C [L-ascorbic acid, LA; positive control] and 1–15) were dissolved in DMSO to prepare a 5 mM solution. The DPPH methanolic solution (180 μL) was added to the test sample DMSO solution (20 μL) in each well of a 96-well microplate and kept in a place without light for 30 min at 22 °C. Using a VersaMax™ ELISA reader, the optical density of each well was recorded at 517 nm to determine DPPH radical-scavenging activity.

The test system of data set [4] is B16F10 cells. Kind of data set: Cell viability on B16F10 cells (EZ-Cytox). The class given is cell-based. The conditions noted are these: 72 h. As to the method: Therefore, we investigated whether these compounds exert tyrosinase inhibitory activity in B16F10 mammalian cells. We examined the effects of these compounds on B16F10 cell viability. Cell viability was assessed for 72 h at five concentrations (1, 2, 5, 10, and 20 μM) of compounds 10 and 15.
The viability of B16F10 cells in the presence of compounds 10 and 15 was assayed. A 96-well microplate containing 1 × 10^3 B16F10 cells per well was incubated at 37 °C in a humid environment containing 5% CO2 for 24 h. Test samples (10 and 15) were added to each well at concentrations of 0, 1, 2, 5, 10, and 20 μM and incubated for 72 h. Each well was exposed to a 10 μL EZ-Cytox solution (EZ-500®, DoGenBio, Seoul, Republic of Korea) and incubated for 2 h. To determine cell viability, well optical density was measured at 450 nm using an ELISA reader.

The target of data set [5] is mushroom tyrosinase (Agaricus bisporus, UniProt C7FF04). Kind of data set: Kinetic experiment using mushroom tyrosinase (Lineweaver–Burk and Dixon plots). It counts as biochemical. On the procedure: The plots for inhibitors 10 and 15 were obtained by measuring the initial rate of dopachrome production in the presence of various L-DOPA substrate concentrations (Figure 3A,C). For the kinetic experiments, compounds 10 and 15 were used at 0, 1, 2, and 4 μM and at 0, 4, 8, and 16 μM, respectively.
Ki, known as the dissociation constant or inhibition constant, describes the binding affinity between the enzyme and inhibitor. […] Dixon plots were acquired by plotting the inverse of the initial dopachrome formation rate against the inhibitor concentration (Figure 3B,D). Each Dixon plot produces four lines that merge at one point in the second quadrant. The absolute value of the x co-ordinate of the merge point represents the Ki value. […] The lower the Ki value, the stronger the binding affinity. Thus, compound 10 bound more strongly to the tyrosinase active site than compound 15.
The identification of the tyrosinase inhibition mechanism was carried out by kinetic studies using mushroom tyrosinase. Test samples (10 μL; compounds 10 and 15) were mixed with a mushroom tyrosinase aqueous solution (20 μL; 100 units/mL) and a substrate solution (170 μL; substrate [L-DOPA] and 17.2 mM sodium phosphate pH 6.5 buffer) in each well of 96-well microplate. To obtain Lineweaver–Burk plots for kinetic analysis, L-DOPA and test samples were used at various concentrations: 0, 1, 2, and 4 μM for 10; 0, 4, 8, and 16 μM for 15; and 1, 2, 4, 8, and 16 mM for L-DOPA. During a 30 min incubation period, the initial dopachrome formation rate was calculated by measuring the optical density at 475 nm at 5 min intervals using an ELISA reader. Lineweaver–Burk plots were prepared by plotting the inverse of the substrate concentration against the inverse of the initial dopachrome formation rate in the presence of four different concentrations of compounds 10 and 15.

The test system of data set [6] is tyrosinase activity of zebrafish larvae. Kind of data set: Tyrosinase activity in zebrafish larvae. The class given is in vivo, Danio rerio. The note with it: 76 hpf. As to the method: To quantify the tyrosinase activity in zebrafish larvae, 60 zebrafish larvae at 76 hpf were divided into three Eppendorf tubes and centrifuged at 10,000× g for 10 min at 4 °C. After removing the supernatant, the residue was lysed using radioimmunoprecipitation assay buffer (100 μL) (Biosedang, Gyeonggi-do, Republic of Korea) and homogenized for 5 min using a sonicator. The lysate was centrifuged at 10,000× g for 10 min at 4 °C. The supernatants were transferred to a new Eppendorf tube and the protein content was quantified using a bicinchoninic acid protein assay kit (Thermo Fisher Scientific, Waltham, MA, USA). An aliquot (100 μL) of 1 mM L-DOPA was added to the new Eppendorf tube containing a total of 300 μg of protein in 100 μL of protein lysate. Eppendorf tubes were incubated for 1 h at 37 °C and then transferred to each well of a 96-well plate. The absorbance of each well was measured at 475 nm to determine the tyrosinase activity of zebrafish larvae.

The test system of data set [7] is zebrafish larvae. Kind of data set: Zebrafish depigmentation assay using zebrafish embryos. It counts as in vivo, Danio rerio. Set-up: pigmentation of zebrafish larvae: dose or concentration left out as unconfirmed. The conditions noted are these: treated at 28 hpf, read at 76 hpf.
Experimental: Zebrafish embryos were used to determine whether the synthesized compounds could inhibit melanin synthesis in vivo. […] The degree of depigmentation in zebrafish larvae was confirmed by photography 48 h later (Figure 8A). The density of the zebrafish larvae was measured using a CS analyzer 3.2 (Atto, Tokyo, Japan). […] To obtain zebrafish (wild type, Danio rerio) eggs for the experiment, six male and nine female zebrafish were raised separately in oxygen-connected tanks. Dried brine shrimp (Artemia salina, San Francisco Bay Brand, San Francisco, CA, USA) were fed as food three times per day. They were raised at 28 °C with 10 h of light blocking and 14 h of light exposure. The evening before obtaining zebrafish eggs, three females and two males were placed together in three zebrafish mating cages, and the light was blocked. The following morning, mating was induced by exposure to light. Harvested zebrafish eggs, obtained free of charge from the Zebrafish Center for Disease Modeling (Chungnam National University, Daejeon, Republic of Korea), were kept in an E3 embryonic solution containing methylene blue (MB) until the dechorionation process was performed. […] The pigmented areas in the zebrafish larval photographs were determined using an ATTO CS analyzer 3.2 (Tokyo, Japan).
Data set [8] relates to B16F10 cells. Kind of data set: Melanin content assay in B16F10 cells. The class given is cell-based. The note with it: 20 μM; α-MSH + IBMX; 72 h; stimulators alone 3.9-fold. On the procedure:
After 72 h, the effect of compound 10 on melanin biosynthesis was determined. A 6-well microplate containing 5 × 10^3 B16F10 cells per well was incubated at 37 °C for 24 h. Compound 10 was added to each well at 5, 10, and 20 μM and incubated for 1 h, and then stimulators (1 μM α-MSH and 200 μM IBMX) were added to each well before 72 h incubation. […] For the melanin content quantification, the cells were lysed at 60 °C for 1 h in 100 μL 1N-NaOH solution containing 10% DMSO after washing 2 times with phosphate-buffered saline (PBS). The cell lysates were transferred to a 96-well microplate and the optical density was measured at 405 nm using an ELISA reader to calculate the melanin content in each well.

For data set [9], the system named is B16F10 cellular tyrosinase. Kind of data set: Cellular tyrosinase activity assay in B16F10 cells. The class given is cell-based. The note with it: 20 μM; α-MSH + IBMX; 72 h; stimulators alone 3.9-fold vs untreated control. As to the method:
We analyzed the effect of 10 on B16F10 cellular tyrosinase activity to determine whether the ability of 10 inhibiting melanogenesis results from its ability to inhibit cellular tyrosinase activity.
A 6-well microplate containing 5 × 10^3 B16F10 cells per well was incubated at 37 °C for 24 h. Compound 10 was added to each well at 5, 10, and 20 μM and incubated for 1 h, and then stimulators (1 μM α-MSH and 200 μM IBMX) were added to each well before 72 h incubation.
To measure the cellular tyrosinase activity, the cells incubated for 72 h were washed 2 times with PBS, exposed to a 100 μL lysis buffer solution containing 5 μL 2 mM phenylmethylsulfonyl fluoride, 5 μL 20% Triton X-100, and 90 μL 50 mM phosphate buffer (pH 6.5), and cultivated for 30 min at −80 °C. After the lysates were centrifuged at 4 °C for 10 min at 10,000× g, an aliquot (80 μL) of the supernatants was added to each well of a 96-well microplate containing 20 μL of 10 mM L-DOPA. Data for the optical density at 475 nm were obtained every 1 min for 10 min at 37 °C using an ELISA reader to determine cellular tyrosinase activity.

The subject of data set [10] is B16F10 cells. Kind of data set: In situ cellular tyrosinase activity assay (L-DOPA staining). The class given is cell-based. The note with it: 20 μM; α-MSH + IBMX; 72 h, then L-DOPA 2 h. As to the method:
The effect of 10 on cellular tyrosinase activity was investigated in situ using L-DOPA and B16F10 cells. This experimental method allows for the direct observation of cellular melanin production. […] After 72 h of incubation, the cells were treated with L-DOPA for 2 h to induce melanin production.
A 24-well plate containing 1 × 10^3 B16F10 cells per well was incubated at 37 °C for 24 h. […] After incubation for 72 h, the cells were fixed for 50 min using paraformaldehyde (4%), rinsed twice with PBS, and permeabilized for 2 min using Triton X-100 (0.1%). The cells were washed with PBS and 500 μL of 2 mM L-DOPA solution was added. After the cells were incubated at 37 °C for 2 h, stained images were obtained using a camera connected to a microscope (Motic, Hong Kong, China).

Chain of mushroom tyrosinase (C7FF04 1-392): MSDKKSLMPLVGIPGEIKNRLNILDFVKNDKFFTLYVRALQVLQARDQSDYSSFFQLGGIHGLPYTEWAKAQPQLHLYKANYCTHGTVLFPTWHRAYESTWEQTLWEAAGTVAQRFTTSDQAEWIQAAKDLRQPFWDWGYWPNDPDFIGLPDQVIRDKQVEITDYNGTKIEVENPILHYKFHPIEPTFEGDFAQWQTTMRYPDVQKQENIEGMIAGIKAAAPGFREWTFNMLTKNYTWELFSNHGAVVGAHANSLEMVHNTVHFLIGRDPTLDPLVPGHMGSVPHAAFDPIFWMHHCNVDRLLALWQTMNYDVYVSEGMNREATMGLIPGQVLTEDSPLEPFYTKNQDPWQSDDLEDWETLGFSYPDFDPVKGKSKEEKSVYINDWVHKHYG

For the compound `O=C1N=C(Nc2cccc3ccccc23)S/C1=C\c1ccc(O)c(O)c1` [Compound 8, (Z)-5-(3,4-Dihydroxybenzylidene)-2-(naphthalen-1-ylamino)thiazol-4(5H)-one], the “ABTS+ scavenging” value in [1] came out at 99%. For the same compound, in data set [2], the ROS-scavenging activity result is “very strong ROS-scavenging capacity, which was more potent than that of Trolox”. The DPPH radical scavenging in data set [3] worked out at 77%.

The term Ki denotes the dissociation constant of the complex between target and ligand, obtained from inhibition or displacement. For `O=C1N=C(Nc2cccc3ccccc23)S/C1=C\c1ccc(O)c(Br)c1` [Compound 15, (Z)-5-(3-Bromo-4-hydroxybenzylidene)-2-(naphthalen-1-ylamino)thiazol-4(5H)-one], the “cytotoxicity in B16F10 cells” value in data set [4] (1 μM) was “significant cytotoxicity was observed”. Further, the B16F10 cell viability result in data set [4] (1, 2, 5, 10 and 20 μM) is given as “clearly reduced cell viability in a concentration-dependent manner”. For the same compound, the Ki in data set [5] (Dixon plots, substrate L-DOPA) stood at 4.87 µM. Also, in [5] (Lineweaver–Burk plots, L-DOPA 1–16 mM), the inhibition mechanism entry is “compete with the substrates for binding to the active site of tyrosinase”. In addition, the “tyrosinase activity of zebrafish larvae compared with kojic acid” value in data set [6] (0.3 mM vs kojic acid 20 mM) is listed as “comparable to that of kojic acid, even at a concentration 70 times lower”. The “tyrosinase activity of zebrafish larvae” value in data set [6] (0.1 and 0.3 mM) is on record as “decreased tyrosinase activity in a concentration-dependent manner”. In addition, the “depigmentation capacity in zebrafish larvae” value in data set [7] (0.1 mM vs kojic acid 20 mM) is reported as “depigmentation capacity similar to that of kojic acid, even at a concentration 200 times lower”.

With `O=c1cc(CO)occ1O` [Kojic acid, reference compound], the stimulator-induced melanin content in [8] stood at 3.4 fold. Besides, the cellular tyrosinase activity in data set [9] came out at 3.3 fold. Moreover, in data set [10], the “in situ melanin formation (L-DOPA staining)” value is reported as “melanin production was suppressed compared with that in the group treated with only stimulators”. The “tyrosinase activity of zebrafish larvae” value in data set [6] (20 mM) is given as “significantly reduced tyrosinase activity”. In addition, in [7], the “pigmentation of zebrafish larvae” value is “pigmentation of zebrafish larvae was reduced”.

For the compound `Cc1c(C)c2c(c(C)c1O)CCC(C)(C(=O)O)O2` (centres unmarked) [Trolox, reference compound], the “ABTS+ scavenging” value in [1] turned out to be 99%. In [2], the ROS-scavenging activity entry is on record as “strong ROS-scavenging activity”.
